Test results: ChEMBL document CHEMBL3507680, “University of Dundee, Gates Library screen for HepG2 cell viability”

Experiment: Human HepG2 cell viability assay in 384 well format
Assay type: toxicity, cell-based
Design: dose 125 nL, time 70.5 hour; concentration not given beside the values
Conditions: HepG2 cells, read-out: Inhibition

Row | SMILES | cytotoxicity at 70.5 h
1 | Cc1ccc(S(N)(=O)=O)cc1C(=O)NC1CCN(C2CC2)CC1 | 21.9%
2 | CN(C)c1nc2c(c(N3CCc4c(c(CO)nn4C)C3)n1)CCNC2 | 46.5%
3 | COc1ccc(-c2nc(CN3CCN(CCO)CC3)co2)cc1 | 30.3%
4 | c1cnn(CC2CN(c3ncnc4[nH]ccc34)CCO2)c1 (stereo unspecified) | -0.974%
5 | CN(C)C(=O)N1CCC2(CCCN(Cc3cnn(C)c3)C2)C1 (stereo unspecified) | 6.69%
6 | O=C(Nc1ccc(-n2ccc(C(=O)O)n2)cc1)c1ccccc1 | -1.13%
7 | Cc1ncc(CN(C)C(=O)Nc2cccc(N3CCOC3=O)c2)s1 | 25%
8 | CN(C)C(=O)NCc1nnc2n1CCN(Cc1cccs1)C2 | -2.91%
9 | CCOCc1ccccc1NC(=O)NC1CCN(c2ncccn2)CC1 | -6.67%
10 | CCS(=O)(=O)N1Cc2ccccc2CC1C(=O)OCc1cc(C)no1 (stereo unspecified) | -7.63%
11 | Cc1cc(N2CCC3(CCCN(CCO)C3=O)C2)nc2cc(Cl)ccc12 (stereo unspecified) | -19.8%
12 | Cc1ccsc1CCNC(=O)CCC(=O)NC1CCCC1 | -15.3%
13 | CC(=O)N1CCc2ncc(CNC(=O)C3CCC3)n2CC1 | -2.29%
14 | Cc1ccc(CN2CCN(C3CCSCC3)CC2CCO)o1 (stereo unspecified) | -0.539%
15 | CCOCC1CN(c2ccncn2)Cc2cnn(CC3CC3)c21 (stereo unspecified) | -7.56%
16 | CC(c1ccccc1Cl)N1CCN(C(=O)c2ccc(=O)[nH]c2)CC1 (stereo unspecified) | 2%
17 | Cc1c(CNC2CCN(c3ccccc3OC(F)F)C2)cnn1C (stereo unspecified) | -3.92%
18 | CC(=O)N1CCNCC1c1cccc(C(=O)N(C)C)c1 (stereo unspecified) | -8.36%
19 | COc1c(CNCc2ccccc2Cn2cccn2)c(C)nn1C | -5.48%

Row | SMILES | cytotoxicity at 70.5 h
20 | Cn1cc(C2COC3(CCN(C(=O)c4cccn4C)CC3)C2)cn1 (stereo unspecified) | 14.2%
21 | O=C(c1ccccc1F)N1C[C@H]2CCC[C@@]2(COCc2ccncc2)C1 | -0.88%
22 | O=C(CN1CCSC2(CCCCC2)C1)NCC(F)(F)F | -10.8%
23 | COCCn1cc2c(n1)C(CNCc1ccsc1)OCC2 (stereo unspecified) | -14.8%
24 | Cc1cc(C)n(CC2CCCN2CCCS(C)(=O)=O)n1 (stereo unspecified) | -7.95%
25 | CN(CC1Cc2ccccc2CN1C)c1nc(N)nc2c1CCNCC2 (stereo unspecified) | -9.32%
26 | COCC(c1ccccn1)N(C)C(=O)c1cc(-c2cccn2C)n[nH]1 (stereo unspecified) | -10.6%
27 | Cc1ncc(C(=O)N2CCCC(C(=O)c3nccn3C)C2)c(O)n1 (stereo unspecified) | 9.55%
28 | Cc1nc(NC(=O)C(C)N(C)Cc2ccc3c(c2)OCO3)sc1C (stereo unspecified) | -5.16%
29 | O=C(c1cc[nH]n1)N1CCc2cc(Br)sc2C1 | 15.1%
30 | Cc1nc2c(c(N3CCN(c4ncccc4C(N)=O)CC3)n1)CCNC2 | -3.51%
31 | Cc1ccc(CN2C[C@@H]3COC[C@@H](CC(=O)N4CCOCC4)[C@@H]3C2)s1 | -11%
32 | OCCOc1ccc(NCc2cc(F)cc3cccnc23)cn1 | -9.9%
33 | O=C1CCC(c2ccc(Cl)cc2)=NN1CN1CCCCCC1 | -4.16%
34 | CN(C)S(=O)(=O)N1CC[C@]2(C[C@@H](Oc3ncccc3F)CO2)C1 | 13.4%
35 | Cc1noc(C)c1CN1CC2(CCN(C(=O)c3cccn3C)C2)CC1=O (stereo unspecified) | -8.3%
36 | CCOc1ccc(C(=O)N2Cc3cnc(CC)nc3C2)o1 | -3.48%
37 | Cc1nn(C)c(N(C)C)c1CNC1CCCCNC1=O (stereo unspecified) | -4.25%
38 | O=C(CCn1cccn1)N1CCN(CC(F)F)CC1 | -1.77%

Row | SMILES | cytotoxicity at 70.5 h
39 | CCC(NCc1cccc(Cl)c1)c1ccccc1OCC(=O)NC (stereo unspecified) | -1.52%
40 | CC(CC#N)N(C)Cc1ccccc1Cl (stereo unspecified) | -7.77%
41 | O=C1NC(c2ccccc2)=N[C@@]12CC[C@@H]1CN(Cc3ccoc3)C[C@@H]12 | -3.26%
42 | CN1N=C(C(=O)NCc2ccc3c(c2)CCCN3C)CCC1=O | 5.34%
43 | NC(=O)NC(=O)CNC1(c2ccc(Cl)cc2)CCCC1 | -17.2%
44 | CC(C)n1ccnc1CN1CCOC(C)(C(=O)N2CCOCC2)C1 (stereo unspecified) | -5.02%
45 | O=C(C1CCCC1)N1C[C@@H]2CCN(c3cnccn3)C[C@@H]2C1 | -1.88%
46 | CCN1CCc2cc(C(=O)N(C)C)c(NCC3CC3)nc2CC1 | 2.86%
47 | COCCN(C)C(C(=O)O)c1ccc2ccccc2c1 (stereo unspecified) | 6.21%
48 | Cn1ccc2c(C(=O)N3CCC4(CCOC4)C3)cccc21 (stereo unspecified) | 23.5%
49 | COC(=O)[C@@H]1Cc2c[nH]c3cccc(c23)[C@H](CC(C)C)N1 | -2.26%
50 | O=C(CCN1CCCC(CO)(CC2CC2)C1)NC1CCCCC1 (stereo unspecified) | -25.2%
51 | O=C(N[C@H]1CN(Cc2ccsc2)[C@@H]2CCCO[C@H]12)C1CC1 | -11.3%
52 | CC(C)Cn1cc(NC(=O)c2cccc(N(C)C)c2)cn1 | -8.55%
53 | CN1CCCC(N2CCN(c3cc(C(F)(F)F)ccn3)CC2)C1 (stereo unspecified) | -5.61%
54 | Cc1cccc(CC(=O)N2CCCC(N(C)CCCN(C)C)C2)c1 (stereo unspecified) | -4.84%
55 | Cc1cc(C)cc(NCCC(=O)NC2CCN(C(=O)C3CC3)CC2)c1 | -2.45%
56 | CC(=O)c1cccc(OCC(=O)NS(=O)(=O)c2ccc(C)s2)c1 | 28.6%
